According to patent US20220177839A1, “COMPOSITION, CULTURE MEDIUM AND METHOD FOR INDUCING AND/OR AMPLIFYING TSCM IN VITRO” (SHANGHAI SINOBAY BIOTECHNOLOGY CO., LTD., priority 2019, published 2022):

Test system: human primary CD8^+T cells (CD3^+CD8^+)
Assay: In-vitro induction and amplification of CD8+TSCM in culture media A to E (cell count, flow cytometry CD45RA, CCR7, CD95)
Format: cell-based
Settings: GSK-3β inhibitor
Description: 1) Pre-prepared human primary T cells (Shanghai Sinobay Bio-Tech Co., Ltd., hereinafter referred to as “Sinobay”) were selected by a magnetic bead negative selection method to obtain human primary CD8^+T cells (CD3^+CD8^+), and the human primary CD8^+T cells (CD3^+CD8^+) were placed in a 96-well U-bottom culture plate, with 5×10^4 CD8^+T cells in each well;
2) subsequently, culture media A to E and magnetic beads coupled to an anti-CD3 antibody and an anti-CD28 antibody were added into the culture plates containing the CD8^+T cells, wherein a ratio of the number of the magnetic beads to the number of the cells was 1:1; and fresh culture media A to E were supplemented at Day 4, Day 7, Day 10 and Day 13 of cell culture; and
3) the cells were counted at Day 0, Day 7 and Day 14 of cell culture respectively, flow cytometry antibodies (CD45RA, CCR7 and CD95) for detecting TSCM were incubated, and the TSCM was detected by using a flow cytometry.

SMILES: Nc1cccc(-c2cc3c(Oc4cccc(O)c4)ncnc3[nH]2)c1 [TWS119]
- concentration range that effectively induces the formation of TSCM: 1 to 50 µM
